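Results reflect a 48-hour exposure of cells in 96-well plates to compound at five concentrations. At the TGI there is no net growth.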
Columns and labels:
Experiment in all cases: inhibition of tumour cell growth, NCI panel, 48 h
SK-MEL-2 melanoma = test system: SK-MEL-2 melanoma
UACC-257 melanoma = test system: UACC-257 melanoma
EKVX NSCLC = test system: EKVX NSCLC
SNB-75 CNS = test system: SNB-75 CNS
U251 CNS = test system: U251 CNS
OVCAR-8 ovarian = test system: OVCAR-8 ovarian
NCI/ADR-RES ovarian = test system: NCI/ADR-RES ovarian
SK-MEL-28 melanoma = test system: SK-MEL-28 melanoma
NCI-H460 lung = test system: NCI-H460 lung
SF-268 CNS = test system: SF-268 CNS
HCT-116 colon = test system: HCT-116 colon
MDA-MB-435 = test system: MDA-MB-435
HOP-92 NSCLC = test system: HOP-92 NSCLC
A498 renal = test system: A498 renal
TK-10 renal = test system: TK-10 renal
COLO 205 colon = test system: COLO 205 colon
MCF7 breast = test system: MCF7 breast
CCRF-CEM leukemia = test system: CCRF-CEM leukemia
SK-OV-3 ovarian = test system: SK-OV-3 ovarian
KM12 colon = test system: KM12 colon
RXF 393 renal = test system: RXF 393 renal
NCI-H23 lung = test system: NCI-H23 lung
OVCAR-3 ovarian = test system: OVCAR-3 ovarian
786-0 renal = test system: 786-0 renal
NCI-H226 lung = test system: NCI-H226 lung
OVCAR-5 ovarian = test system: OVCAR-5 ovarian
LOX IMVI melanoma = test system: LOX IMVI melanoma
SK-MEL-5 melanoma = test system: SK-MEL-5 melanoma
MDA-MB-231 breast = test system: MDA-MB-231 breast
HS 578T breast = test system: HS 578T breast
SF-295 CNS = test system: SF-295 CNS
RPMI-8226 leukemia = test system: RPMI-8226 leukemia
SW-620 colon = test system: SW-620 colon
SNB-19 CNS = test system: SNB-19 CNS
MOLT-4 leukemia = test system: MOLT-4 leukemia
SF-539 CNS = test system: SF-539 CNS
BT-549 breast = test system: BT-549 breast
K-562 leukemia = test system: K-562 leukemia
SN12C renal = test system: SN12C renal
T-47D breast = test system: T-47D breast
PC-3 prostate = test system: PC-3 prostate
ACHN renal = test system: ACHN renal
UACC-62 melanoma = test system: UACC-62 melanoma
A549 NSCLC = test system: A549 NSCLC
HOP-62 NSCLC = test system: HOP-62 NSCLC
DU-145 prostate = test system: DU-145 prostate
OVCAR-4 ovarian = test system: OVCAR-4 ovarian
MDA-N = test system: MDA-N
HT29 colon = test system: HT29 colon
UO-31 renal = test system: UO-31 renal
HCT-15 colon = test system: HCT-15 colon
IGROV1 ovarian = test system: IGROV1 ovarian
MALME-3M melanoma = test system: MALME-3M melanoma
SR leukemia = test system: SR leukemia
M14 melanoma = test system: M14 melanoma
HCC-2998 colon = test system: HCC-2998 colon
CAKI-1 renal = test system: CAKI-1 renal
HL-60(TB) leukemia = test system: HL-60(TB) leukemia

## O=C(N/S(=N/S(=O)(=O)c1ccc(Br)cc1)C(Cl)(Cl)Cl)c1ccccc1 (stereo unspecified)
SK-MEL-2 melanoma
  TGI: > 100 µM
UACC-257 melanoma
  TGI: > 100 µM
EKVX NSCLC
  TGI: > 100 µM
SNB-75 CNS
  TGI: > 100 µM
U251 CNS
  TGI: > 100 µM
OVCAR-8 ovarian
  TGI: > 100 µM
NCI/ADR-RES ovarian
  TGI: > 100 µM
SK-MEL-28 melanoma
  TGI: > 100 µM
NCI-H460 lung
  TGI: > 100 µM
SF-268 CNS
  TGI: > 100 µM
HCT-116 colon
  TGI: > 100 µM
MDA-MB-435
  TGI: > 100 µM
HOP-92 NSCLC
  TGI: 82 µM
A498 renal
  TGI: > 100 µM
TK-10 renal
  TGI: > 100 µM
COLO 205 colon
  TGI: > 100 µM
MCF7 breast
  TGI: > 100 µM
CCRF-CEM leukemia
  TGI: > 100 µM
SK-OV-3 ovarian
  TGI: > 100 µM
KM12 colon
  TGI: > 100 µM
RXF 393 renal
  TGI: > 100 µM
NCI-H23 lung
  TGI: > 100 µM
OVCAR-3 ovarian
  TGI: > 100 µM
786-0 renal
  TGI: > 100 µM
NCI-H226 lung
  TGI: > 100 µM
OVCAR-5 ovarian
  TGI: > 100 µM
LOX IMVI melanoma
  TGI: > 100 µM
SK-MEL-5 melanoma
  TGI: > 100 µM
MDA-MB-231 breast
  TGI: > 100 µM
HS 578T breast
  TGI: > 100 µM
SF-295 CNS
  TGI: > 100 µM
RPMI-8226 leukemia
  TGI: > 100 µM
SW-620 colon
  TGI: > 100 µM
SNB-19 CNS
  TGI: > 100 µM
MOLT-4 leukemia
  TGI: > 100 µM
SF-539 CNS
  TGI: > 100 µM
BT-549 breast
  TGI: > 100 µM
K-562 leukemia
  TGI: > 100 µM
SN12C renal
  TGI: > 100 µM
T-47D breast
  TGI: > 100 µM
PC-3 prostate
  TGI: > 100 µM
ACHN renal
  TGI: > 100 µM
UACC-62 melanoma
  TGI: > 100 µM
A549 NSCLC
  TGI: > 100 µM
HOP-62 NSCLC
  TGI: > 100 µM
DU-145 prostate
  TGI: > 100 µM
OVCAR-4 ovarian
  TGI: > 100 µM
MDA-N
  TGI: > 100 µM
HT29 colon
  TGI: > 100 µM
UO-31 renal
  TGI: > 100 µM
HCT-15 colon
  TGI: > 100 µM
IGROV1 ovarian
  TGI: > 100 µM
MALME-3M melanoma
  TGI: > 100 µM
SR leukemia
  TGI: > 100 µM
M14 melanoma
  TGI: > 100 µM

## Cc1c(C(=O)OCc2ccccc2)[n+](=O)c2ccccc2n1[O-]
SK-MEL-2 melanoma
  TGI: > 100 µM
UACC-257 melanoma
  TGI: 56.1 µM
EKVX NSCLC
  TGI: 91.5 µM
SNB-75 CNS
  TGI: 56.5 µM
U251 CNS
  TGI: > 100 µM
OVCAR-8 ovarian
  TGI: > 100 µM
NCI/ADR-RES ovarian
  TGI: 93.8 µM
SK-MEL-28 melanoma
  TGI: > 100 µM
NCI-H460 lung
  TGI: > 100 µM
SF-268 CNS
  TGI: > 100 µM
HCC-2998 colon
  TGI: > 100 µM
HCT-116 colon
  TGI: 65.6 µM
MDA-MB-435
  TGI: 75.2 µM
HOP-92 NSCLC
  TGI: 13.4 µM
A498 renal
  TGI: 94.3 µM
TK-10 renal
  TGI: 84.6 µM
COLO 205 colon
  TGI: 37.6 µM
MCF7 breast
  TGI: > 100 µM
CCRF-CEM leukemia
  TGI: 0.199 µM
CAKI-1 renal
  TGI: 80.5 µM
SK-OV-3 ovarian
  TGI: > 100 µM
KM12 colon
  TGI: > 100 µM
RXF 393 renal
  TGI: 69.1 µM
NCI-H23 lung
  TGI: 95.7 µM
OVCAR-3 ovarian
  TGI: > 100 µM
786-0 renal
  TGI: > 100 µM
NCI-H226 lung
  TGI: 57.1 µM
OVCAR-5 ovarian
  TGI: > 100 µM
LOX IMVI melanoma
  TGI: 44.8 µM
SK-MEL-5 melanoma
  TGI: 53.6 µM
MDA-MB-231 breast
  TGI: 64.8 µM
HS 578T breast
  TGI: 72.9 µM
SF-295 CNS
  TGI: > 100 µM
RPMI-8226 leukemia
  TGI: 30.5 µM
SNB-19 CNS
  TGI: > 100 µM
MOLT-4 leukemia
  TGI: 43 µM
SF-539 CNS
  TGI: > 100 µM
BT-549 breast
  TGI: > 100 µM
K-562 leukemia
  TGI: > 100 µM
SN12C renal
  TGI: > 100 µM
T-47D breast
  TGI: 57.2 µM
PC-3 prostate
  TGI: > 100 µM
ACHN renal
  TGI: > 100 µM
UACC-62 melanoma
  TGI: > 100 µM
A549 NSCLC
  TGI: 70.7 µM
HOP-62 NSCLC
  TGI: 61.2 µM
DU-145 prostate
  TGI: 47.8 µM
OVCAR-4 ovarian
  TGI: 85 µM
MDA-N
  TGI: > 100 µM
HL-60(TB) leukemia
  TGI: 77.4 µM
HT29 colon
  TGI: > 100 µM
UO-31 renal
  TGI: 86.3 µM
HCT-15 colon
  TGI: > 100 µM
IGROV1 ovarian
  TGI: 34.1 µM
SR leukemia
  TGI: 47.3 µM
M14 melanoma
  TGI: > 100 µM

— PubChem BioAssay (NCI)
